Format in all cases: cell-based
The target in one assay is human S1P5 receptor (Homo sapiens (Human), UniProt Q9H228). Briefly: In vitro functional activity (agonism) on human S1P5 receptors, CHO-human-S1P5-Aequorin assay. Conditions: aequorin luminescence, CHO cells, 3 independent experiments. An excerpt: In Vitro Functional Activity (Agonism) on Human S1P5 Receptors
(§1) The CHO-human-S1P5-Aeqorin assay was bought from Euroscreen, Brussels (Euroscreen, Technical dossier, Human Lysophospholid S1P5 (Edg8) receptor, DNA clone and CHO AequoScreen™ recombinant cell-line, catalog no: ES-593-A, September 2006). Human-S1P5-Aequorin cells express mitochondrial targeted apo-Aequorin. Cells have to be loaded with coelanterazine, in order to reconstitute active Aequorin. After binding of agonists to the human S1P5 receptor the intracellular calcium concentration increases and binding of calcium to the apo-Aequorin/coelenterazine complex leads to an oxidation reaction of coelenterazine, which results in the production of apo-Aequorin, coelenteramide, CO2 and light ([…]max 469 nm). This luminescent response is dependent on the agonist concentration. Luminescence is measured using the MicroBeta Jet (Perkin Elmer). Agonistic effects of compounds are expressed as pEC50. Compounds were tested at a 10 points half log concentration range, and 3 independent experiments were performed in single point's measurements.

A further assay deals with human S1P3 receptor (Homo sapiens (Human), UniProt Q99500). Briefly: In vitro functional activity (agonism) on human S1P3 receptors, CHO-human-S1P3-Aequorin assay. Particulars: aequorin luminescence, CHO K1 cells, 3 independent experiments, read-out: S1P3 pEC50 (converted).
human S1P3 receptor, sequence (Q99500 whole entry): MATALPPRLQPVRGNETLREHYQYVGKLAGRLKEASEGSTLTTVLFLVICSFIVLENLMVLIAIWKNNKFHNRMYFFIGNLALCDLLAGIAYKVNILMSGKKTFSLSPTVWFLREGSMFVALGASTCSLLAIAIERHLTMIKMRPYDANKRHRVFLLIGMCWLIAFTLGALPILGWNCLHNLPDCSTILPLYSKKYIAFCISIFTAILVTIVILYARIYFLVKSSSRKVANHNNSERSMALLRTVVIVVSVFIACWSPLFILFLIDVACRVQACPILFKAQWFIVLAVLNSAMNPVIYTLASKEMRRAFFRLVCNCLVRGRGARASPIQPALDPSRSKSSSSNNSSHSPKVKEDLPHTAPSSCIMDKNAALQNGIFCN
Description: In Vitro Functional Activity (Agonism) on Human S1P3 Receptors
The CHO-human-S1P3-Aeqorin assay (CHO/Gα16/AEQ/h-S1P3) was established at Solvay Pharmaceuticals. The plasmid DNA coding for the S1P3 receptor (accession number in GenBank NM_005226 was purchased from UMR cDNA resource Centre (Rolla, Mo.). The pcDNA3.1/hS1P3 construct carrying the mitochondrially targeted apo-Aeqorin and Gal6 protein was transfected in CHO K1 cell-line.
as §1, with “Human-S1P3-Aequorin” for “The CHO-human-S1P5-Aeqorin assay was bought from Euroscreen, Brussels (Euroscreen, Technical dossier, Human Lysophospholid S1P5 (Edg8) receptor, DNA clone and CHO AequoScreen™ recombinant cell-line, catalog no: ES-593-A, September 2006). Human-S1P5-Aequorin”, “S1P3” for “S1P5”

Assay [1] deals with T1, human S1P1 (Homo sapiens (Human), UniProt P21453). Briefly: In vitro functional activity (agonism) on human S1P1 receptors (method B), CHO-K1-human S1P1-cAMP assay. How it is done: In Vitro Functional Activity (Agonism) on Human S1P1 Receptors (Method B)
T1 sequence (P21453 whole entry): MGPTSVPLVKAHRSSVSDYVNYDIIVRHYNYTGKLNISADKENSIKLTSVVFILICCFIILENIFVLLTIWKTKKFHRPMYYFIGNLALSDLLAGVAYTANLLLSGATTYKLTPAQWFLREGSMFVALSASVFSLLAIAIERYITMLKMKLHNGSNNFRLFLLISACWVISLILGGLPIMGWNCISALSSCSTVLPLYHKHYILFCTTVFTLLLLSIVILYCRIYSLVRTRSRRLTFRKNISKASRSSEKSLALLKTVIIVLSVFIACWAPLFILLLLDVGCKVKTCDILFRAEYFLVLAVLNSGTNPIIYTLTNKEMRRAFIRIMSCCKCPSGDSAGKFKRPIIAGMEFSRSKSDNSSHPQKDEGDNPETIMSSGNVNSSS
Recombinant CHO-K1 cells expressing human S1P1, grown to mid-log Phase in culture media without antibiotics, detached, centrifuged and re-suspended. For agonist testing cells are mixed with compound and Forskolin and incubated at room temperature. Cells are lyses and cAMP concentration are estimated, according to the manufacturer specification, With the HTRF kit from CIS-BIO International (cat no 62AM2PEB).
Compounds were tested at a 10 points half log concentration range duplicated in 1 experiment.

Assay [2] concerns the target T1, human S1P1. As to the kind of experiment: In vitro functional activity (agonism) on human S1P1 receptors (method A), CHO-K1-human-S1P1-Aequorin assay.
Description: In Vitro Functional Activity (Agonism) on Human S1P1 Receptors (Method A)
as §1, with “Human-S1P1-Aequorin” for “The CHO-human-S1P5-Aeqorin assay was bought from Euroscreen, Brussels (Euroscreen, Technical dossier, Human Lysophospholid S1P5 (Edg8) receptor, DNA clone and CHO AequoScreen™ recombinant cell-line, catalog no: ES-593-A, September 2006). Human-S1P5-Aequorin”, “S1P1” for “S1P5”, “2” for “3”

[3] abbreviates: agonism, determined using method B (cAMP HTRF with Forskolin, CHO-K1 cells), read-out: S1P1^B pEC50 (converted).
Where [4] appears, read: agonism, determined using method A (aequorin luminescence, CHO-K1 cells), 2 independent experiments, read-out: S1P1^A pEC50 (converted).

Counter-ions that a name gives are not always drawn. A value given as a limit tells only on which side of the number the result lay.

human S1P5 receptor, sequence (Q9H228 whole entry): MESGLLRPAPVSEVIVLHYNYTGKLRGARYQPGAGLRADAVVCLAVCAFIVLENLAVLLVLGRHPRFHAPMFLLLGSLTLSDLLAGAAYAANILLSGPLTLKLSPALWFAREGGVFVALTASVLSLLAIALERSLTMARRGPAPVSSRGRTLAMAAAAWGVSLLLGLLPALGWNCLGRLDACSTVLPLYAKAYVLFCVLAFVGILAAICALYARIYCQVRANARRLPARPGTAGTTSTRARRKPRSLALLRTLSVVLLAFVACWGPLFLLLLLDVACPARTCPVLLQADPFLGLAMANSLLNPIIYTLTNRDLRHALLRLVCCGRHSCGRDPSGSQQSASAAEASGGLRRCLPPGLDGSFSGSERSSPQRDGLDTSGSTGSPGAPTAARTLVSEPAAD

For the compound `O=C(O)CCN1CCC2(CC1)COc1cc(OCc3c(F)cccc3Cl)ccc12` [Compound 38, 3-{6-[(2-Chloro-6-fluorphenyl)methoxy]-2H-spiro[1-benzofuran-3,4′-piperidine]-1′-yl}propanoic acid hydrochloride], the “S1P5 pEC50” value at human S1P5 receptor is on record as 6.7. For the same compound, the EC50 was > 10 µM on human S1P3 receptor and > 3.16 µM at human S1P1 [1].

On to `CCc1ccc(Cl)c(COc2ccc3c(c2)OCC32CCN(CCC(=O)O)CC2)c1` [Compound 51, 3-{6-[(2-Chloro-5-ethylphenyl)methoxy]-2H-spiro[1-benzofuran-3,4′-piperidine]-1′-yl}propanoic acid hydrochloride], for which the “S1P5 pEC50” value on human S1P5 receptor stood at 6.6. The EC50 is > 10 µM on human S1P3 receptor and > 3.16 µM at human S1P1 [1] (setting [3]).

On to `Cc1cc(Cl)c(COc2ccc3c(c2)OCC32CCN(CCC(=O)O)CC2)c(Cl)c1` [Compound 59, 3-{6-[(2,6-Dichloro-4-methylphenyl)methoxy]-2H-spiro[1-benzofuran-3,4′-piperidine]-1′-yl)propanoic acid hydrochloride], for which, on human S1P5 receptor, the “S1P5 pEC50” value was determined as 7.8. For the same compound, the EC50 is > 10 µM at human S1P3 receptor and > 3.16 µM at human S1P1 [1] (setting [3]).

As for `CCc1ccc(Cl)c(COc2ccc3c(c2)OCC32CCN(CCC(=O)O)CC2)c1Cl` [Compound 68, 3-{6-[(2,6-Dichloro-3-ethylphenyl)methoxy]-2H-spiro[1-benzofuran-3,4′-piperidine]-1′-yl}propanoic acid hydrochloride], the “S1P5 pEC50” value at human S1P5 receptor came out at 7.5. For the same compound, the EC50 was > 10 µM on human S1P3 receptor and > 3.16 µM at human S1P1 [1] (setting [3]).

Regarding `CC(C)c1cccc(Cl)c1COc1ccc2c(c1)OCC21CCN(CCC(=O)O)CC1` [Compound 74, 3-(6-{[2-Chloro-6-(propan-2-yl)phenyl]methoxy}-2H-spiro[1-benzofuran-3,4′-piperidine]-1′-yl)propanoic acid hydrochloride], the EC50 at human S1P1 [1] is > 3.16 µM.

As for `O=C(O)CCN1CCC2(CC1)COc1cc(OC3CCc4cc(Cl)cc(Cl)c43)ccc12` (stereo not shown) [Compound 79, 3-{6-[(5,7-Dichloro-2,3-dihydro-1H-inden-1-yl)oxy]-2H-spiro[1-benzofuran-3,4′-piperidine]-1′-yl}propanoic acid], on human S1P5 receptor, the “S1P5 pEC50” value is listed as 7.2. The EC50 on human S1P3 receptor was > 10 µM; at human S1P1 [1] (setting [3]), 2 µM.

In the case of `CC(CN1CCC2(CC1)COc1cc(OCc3c(Cl)cccc3Cl)ccc12)C(=O)O` (stereo not shown) [Compound 100, 3-{6-[(2,6-Dichlorophenyl)methoxy]-2H-spiro[1-benzofuran-3,4′-piperidine]-1′-yl}-2-methylpropanoic acid hydrochloride], at human S1P5 receptor, the “S1P5 pEC50” value is on record as 7. Moreover, the EC50 on human S1P3 receptor was > 10 µM; at human S1P1 [1] (setting [3]) it was > 3.16 µM.

For `O=C(O)CCCN1CCC2(CC1)COc1cc(OCc3c(Cl)cccc3Cl)ccc12` [Compound 128, 4-{6-[(2,6-Dichlorophenyl)methoxy]-2H-spiro[1-benzofuran-3,4′-piperidine]-1′-yl}butanoic acid hydrochloride], the “S1P5 pEC50” value on human S1P5 receptor is given as 7.6. Besides, the EC50 on human S1P3 receptor is > 10 µM; on human S1P1 [1] (setting [3]), > 3.16 µM.

For `Cc1c(OCc2c(Cl)cccc2Cl)ccc2c1OCC21CCN(CCC(=O)O)CC1` [Compound 129, 3-{6-[(2,6-Dichlorophenyl)methoxy]-7-methyl-2H-spiro[1-benzofuran-3,4′-piperidine]-1′-yl}propanoic acid hydrochloride], the “S1P5 pEC50” value on human S1P5 receptor was found to be 7.5. Further, the EC50 on human S1P3 receptor is > 10 µM; at human S1P1 [1] (setting [3]), > 3.16 µM.

As to `O=C(O)CCN1CCC2(CC1)COc1cc(/C=C/c3c(Cl)cccc3Cl)ccc12` [Compound 160, 3-{6-[(E)-2-(2,6-Dichlorophenyl)ethenyl]-2H-spiro[1-benzofuran-3,4′-piperidine]-1′-yl}propanoic acid hydrochloride], the “S1P5 pEC50” value at human S1P5 receptor came out at 7.7. Also, the EC50 on human S1P3 receptor is > 10 µM; at human S1P1 [1] (setting [3]), > 3.16 µM.

Take `O=C(O)CCN1CCC2(CC1)COc1cc(OCc3c(F)cccc3C3CC3)ccc12` [Compound 253, 3-{6-[(2-cyclopropyl-6-fluorophenyl)methoxy]-2H-spiro[1-benzofuran-3,4′-piperidine]-1′-yl}propanoic acid]: the values for the EC50 at human S1P1 [2] (setting [4]) and on human S1P3 receptor were 2.51 µM and > 10 µM, respectively. Further, the “S1P5 pEC50” value on human S1P5 receptor was 7.7.

As for `CCc1cccc(CC)c1COc1ccc2c(c1)OCC21CCN(CCC(=O)O)CC1` [Compound 258, 3-{6-[(2,6-diethylphenyl)methoxy]-2H-spiro[1-benzo-furan-3,4′-piperidine]-1′-yl}propanoic acid], the EC50 at human S1P1 [2] is 2.51 µM; on human S1P3 receptor, > 10 µM. Also, the “S1P5 pEC50” value on human S1P5 receptor came out at 7.8.

Take `CCCCCCCOc1ccc2c(c1F)OCC21CCN(CCC(=O)O)CC1` [Compound 276, 3-[7-fluoro-6-(heptyloxy)-2H-spiro[1-benzofuran-3,4′-piperidine]-1′-yl]propanoic acid]: the EC50 at human S1P1 [2] (setting [4]) is > 31.6 µM; on human S1P3 receptor, > 10 µM. The “S1P5 pEC50” value on human S1P5 receptor is given as 7.1.

For `CCCCCCCCOc1ccc2c(c1F)OCC21CCN(CCC(=O)O)CC1` [Compound 277, 3-[7-fluoro-6-(octyloxy)-2H-spiro[1-benzofuran-3,4′-piperidine]-1′-yl]propanoic acid], the EC50 is 0.0794 µM on human S1P1 [2] (setting [4]) and > 10 µM on human S1P3 receptor. Moreover, the “S1P5 pEC50” value at human S1P5 receptor is given as 7.8.

Take `O=C(O)CCN1CCC2(CC1)COc1cc(OCc3c(Cl)cccc3Cl)c(F)cc12` [Compound 289, 3-{6-[(2,6-Dichlorophenyl)methoxy]-5-fluoro-2H-spiro[1-benzofuran-3,4′-piperidine]-1′-yl}propanoic acid]: the EC50 is > 31.6 µM at human S1P1 [2] (setting [4]) and > 10 µM on human S1P3 receptor. The “S1P5 pEC50” value at human S1P5 receptor came to 7.5.

As to `O=C(O)CCN1CCC2(CC1)COc1cc(S(=O)(=O)Cc3c(Cl)cccc3Cl)ccc12` [Compound 299, 3-(6-{[(2,6-Dichlorophenyl)methane]sulfonyl}-2H-spiro[1-benzofuran-3,4′-piperidine]-1′-yl}propanoic acid hydrochloride], the EC50 at human S1P1 [2] (setting [4]) is > 31.6 µM; on human S1P3 receptor it was > 10 µM. At human S1P5 receptor, the “S1P5 pEC50” value was found to be 6.

With `O=C(O)CCN1CCC2(CC1)COc1cc(C#Cc3ccccc3)ccc12` [Compound 303, 3-[6-(2-Phenylethynyl)-2H-spiro[1-benzofuran-3,4′-piperidine]-1′-yl]propanoic acid hydrochloride], the EC50 on human S1P1 [2] (setting [4]) was > 31.6 µM; at human S1P3 receptor, > 10 µM. On human S1P5 receptor, the “S1P5 pEC50” value was 7.6.

Regarding `O=C(O)CCN1CCCC2(COc3cc(OCc4c(Cl)cccc4C4CC4)ccc32)C1` (stereo not shown) [Compound 317, 3-{6-[(2-Chloro-6-cyclopropylphenyl)methoxy]-2H-spiro[1-benzofuran-3,3′-piperidine]-1′-yl}propanoic acid hydrochloride], the EC50 is > 31.6 µM at human S1P1 [2] (setting [4]) and > 10 µM on human S1P3 receptor. Further, the “S1P5 pEC50” value on human S1P5 receptor is given as 7.

For the compound `O=C(O)CCN1CCCC2(COc3cc(OCc4c(Cl)cccc4Cl)ccc32)C1` (stereo not shown) [Compound 321, 3-{6-[(2,6-Dichlorophenyl)methoxy]-2H-spiro[1-benzofuran-3,3′-piperidine]-1′-yl}propanoic acid hydrochloride], the EC50 on human S1P1 [2] (setting [4]) was > 31.6 µM; at human S1P3 receptor it was > 10 µM. Moreover, the “S1P5 pEC50” value on human S1P5 receptor is given as 7.1.
